In patent US20220072162A1, “MAGNETIC RESONANCE IMAGING DRUG CONTAINING A DEUTERATED NATURAL BRANCHED-CHAIN AMINO ACID, AND DIAGNOSTIC METHOD USING SAID DRUG” (LIMITED LIABILITY COMPANY "SOLVEX" ("SOLVEX" LLC), priority 2018, published 2022):

Key:
[1] = Content of valine-d6 in tissues of mice with 4T1 breast carcinoma, 2H NMR of tissue extracts (Example 5); type: in vivo, Balb/c mice; settings: for [valine-d6], 30 min.: 30 min after 20 mg i.p. to 20 g mouse; for [valine-d6], 1 hour: 1 hour after 20 mg i.p. to 20 g mouse
Description: After administration, the animal was kept in a separate cage with access to food and water. After a certain time after administration, the animal was devitalized by dislocation of the cervical vertebrae. Samples of animal organs and tissues were quickly removed and frozen in liquid nitrogen. Frozen samples were ground in a porcelain mortar while cooling with liquid nitrogen. A weighed portion (50-200 mg) of the obtained powder was quickly introduced into 0.4% hydrochloric acid (0.6-1.0 ml) heated to 98° C. The resulting suspension was kept at 98° C. for 15 min with occasional shaking. After adding an internal standard (3-O—(CD3)-glucose solution), the mixture was shaken and centrifuged until the solid fractions were completely separated. The solution was analyzed by ^2H NMR.

[2] = in vivo; cited from earlier work
[3] = rat, in vivo, 0.021 mg/kg; cited from earlier work
[4] = in vivo; cited from earlier work; remark: listed apart in the source
[5] = Accumulation of freely diffusing deuterated compounds in organs and tissues; type: in vivo; settings: authors' experiments and prior art
[6] = in vivo; cited from earlier work; remark: listed apart in the source
[7] = Distribution and metabolism of deuterated valine mixture in tissues, isotopomer ratio by LC-MS/MS (Example 6); type: in vivo, Balb/c mice; settings: 60 minutes after 20 mg i.p., 49% in initial drug
Description: In this example, L-valine-d6/d7, partially deuterated at the α position and positions 4, 4′, was used. (S-valine-d6/d7). The total molar fraction of α-deuterated forms of valine in the initial diagnostic drug is 49%.
After administration, the animal was kept in a separate cage with access to food and water. After 60 minutes after administration, the animal was devitalized by dislocation of the cervical vertebrae. Samples of animal organs and tissues were quickly removed and frozen in liquid nitrogen. Frozen samples were ground in a porcelain mortar while cooling with liquid nitrogen. A weighed portion (about 50 mg) of the obtained powder was quickly introduced into 0.4% hydrochloric acid (1.0 ml) heated to 98° C. The resulting suspension was kept at 98° C. for 15 min with occasional shaking, then centrifuged. The solution was diluted with 3 volumes of acetonitrile, centrifuged after 15 minutes, diluted with 9 volumes of water, and centrifuged again. The ratio of isotopomers d5, d6, and d7 of valine was determined by LC-MS/MS.

[8] = Description: This exchange lowers the concentration of the deuterium label, while simultaneously increasing the background signal of heavy water (DOH), which is evenly distributed throughout the body due to rapid diffusion. This process leads to a decrease in the contrast of the image, and also prevents quantitive evaluation of deuterated component concentration by comparison with the intensity of natural DOH signal.
4T1 breast carcinoma = test: Deuterium tomography (2H MRI) to visualize mouse 4T1 breast carcinoma in vivo (Examples 2, 4); settings: for accumulation in tumor tissue (2H tomograms): i.p. to 20 g mouse: 20 mg valine-d6, 30 mg L-alanine-d3, 10 mg L-phenylalanine-d7; for accumulation selectivity in various organs (2H tomograms): i.p. to 20 g mouse: 30 mg L-alanine-d3, 10 mg L-phenylalanine-d7
Description: In this example, experiments were performed on Balb/c mice grafted with 4T1 breast carcinoma (injection of 5·10^5 cells/60 μl under the left forepaw 12 days before the experiment). An animal weighing 20 g was injected intraperitoneally with a solution of 20 mg valine-d6 in 0.5 ml of water. In 10 minutes after the injection, the animal was immobilized with isoflurane and placed on a heated bed in a tomograph. The surface ^2H receiving coil was positioned over the anterior part of the animal's body from the dorsal side, as indicated in FIG. 2 by the dotted line.
In this example, experiments were performed on Balb/c mice grafted with 4T1 breast carcinoma (injection of 5·10^5 cells/60 μl under the left forepaw 12 days before the experiment).
An animal weighing 20 g was injected intraperitoneally with a solution:
a) 30 mg of L-alanine-3,3,3-d3 in 0.5 ml of water; or
In 10 minutes after the injection, the animal was immobilized with isoflurane and placed on a heated bed in a tomograph. The surface ^2H receiving coil was positioned over the anterior part of the animal's body from the dorsal side, as indicated in FIG. 4 by the dotted line.

[9] = Solubility in water for injection; type: physicochemical; settings: 10 mg in 1.0 ml of water was the dose given

Question: Which results are given for `[2H]C([2H])([2H])C([C@H](N)C(=O)O)C([2H])([2H])[2H]` [valine-d6, Valine-4,4,4,4′, 4′, 4′-D6]?
Answer: accumulation in tumor tissue compared to kidneys, heart, brain, skeletal muscles and adipose tissue ([1]; 1 hour after the injection): increased accumulation; [valine-d6], 30 min. ([1]; Brain): 1.6 µmol/g; [valine-d6], 1 hour ([1]; Brain): 2.6 µmol/g; [valine-d6], 30 min. ([1]; Fat tissue): 4.0 µmol/g; [valine-d6], 1 hour ([1]; Fat tissue): 1.7 µmol/g; [valine-d6], 30 min. ([1]; Heart): 7.5 µmol/g; [valine-d6], 1 hour ([1]; Heart): 8.0 µmol/g; [valine-d6], 30 min. ([1]; Kidneys): 9.3 µmol/g; [valine-d6], 1 hour ([1]; Kidneys): 7.5 µmol/g; [valine-d6], 30 min. ([1]; Liver): 17.9 µmol/g; [valine-d6], 1 hour ([1]; Liver): 11.5 µmol/g; [valine-d6], 30 min. ([1]; Lungs): 10.6 µmol/g; [valine-d6], 1 hour ([1]; Lungs): 8.8 µmol/g; [valine-d6], 30 min. ([1]; Sceletal muscles): 7.4 µmol/g; [valine-d6], 1 hour ([1]; Sceletal muscles): 7.7 µmol/g; [valine-d6], 30 min. ([1]; Spleen): 14.7 µmol/g; [valine-d6], 1 hour ([1]; Spleen): 14.1 µmol/g; Tumor:tissue ratio, 30 min. ([1]; Tumor:Brain): 5.8; Tumor:tissue ratio, 1 hour ([1]; Tumor:Brain): 3.8; Tumor:tissue ratio, 30 min. ([1]; Tumor:Fat tissue): 2.3; Tumor:tissue ratio, 1 hour ([1]; Tumor:Fat tissue): 5.8; Tumor:tissue ratio, 30 min. ([1]; Tumor:Heart): 1.2; Tumor:tissue ratio, 1 hour ([1]; Tumor:Heart): 1.2; Tumor:tissue ratio, 30 min. ([1]; Tumor:Kidneys): 0.99; Tumor:tissue ratio, 1 hour ([1]; Tumor:Kidneys): 1.3; Tumor:tissue ratio, 30 min. ([1]; Tumor:Liver): 0.51; Tumor:tissue ratio, 1 hour ([1]; Tumor:Liver): 0.85; Tumor:tissue ratio, 30 min. ([1]; Tumor:Lungs): 0.87; Tumor:tissue ratio, 1 hour ([1]; Tumor:Lungs): 1.1; Tumor:tissue ratio, 30 min. ([1]; Tumor:Sceletal muscles): 1.2; Tumor:tissue ratio, 1 hour ([1]; Tumor:Sceletal muscles): 1.3; Tumor:tissue ratio, 30 min. ([1]; Tumor:Spleen): 0.63; Tumor:tissue ratio, 1 hour ([1]; Tumor:Spleen): 0.70; [valine-d6], 30 min. ([1]; Tumor): 9.2 µmol/g; [valine-d6], 1 hour ([1]; Tumor): 9.8 µmol/g; excess over the physiological concentration of free valine in animal tissues ([1]; physiological free valine about 0.5 μmol/g): more than 10 fold

Question: For `CC(C)C(N)[14C](=O)O` (stereo not shown) [^14C-valine], which “time within which most of the label accumulated in liver and pancreas is included in protein” value [2] is on record?
Answer: ≤ 10 min

Question: Which “increase of absolute concentration of valine in liver and kidneys over physiological” value [3] does the source give for `CC(C)C(N)[14C](=O)O` (racemic) [DL-1-^14C-valine] here?
Answer: no more than 0.3 nmol/g

Question: What about the “elimination of isotopic label in the form of CO2” value [4] of the same compound?
Answer: 28%

Question: What about the “organ of main accumulation” value [4] of the same compound?
Answer: accumulate mainly in the pancreas

Question: With `[2H]O[2H]` [D2O] as the compound, how does the “selective accumulation in various organs and tissues” value [5] read?
Answer: do not show selective accumulation

Question: For `[2H]O` [DOH], which “non-toxic replacement of water in the body” value [6] is on record?
Answer: 10-30%

Question: Which “total mole fraction of α-deuterated valine” value (“total mole fraction” for short) ([7]; adipose tissue) does the source give for “Valine-2,4,4,4,4 “, 4”, 4′-D7 (mixed with valine-4,4,4,4 “, 4”, 4′-D6) [L-valine-d6/d7]” here?
Answer: 11%

Question: And the “total mole fraction” value ([7]; blood)?
Answer: 12%

Question: And the “total mole fraction” value ([7]; brain)?
Answer: 5%

Question: What about the “total mole fraction” value ([7]; kidneys) of the same compound?
Answer: 17%

Question: What about the “total mole fraction” value ([7]; liver) of the same compound?
Answer: 11%

Question: And the “total mole fraction” value ([7]; skeletal muscles)?
Answer: 11%

Question: What about the “total mole fraction” value ([7]; spleen) of the same compound?
Answer: 13%

Question: What about the “total mole fraction” value ([7]; tumor) of the same compound?
Answer: 12%

Question: With `[2H]C([2H])([2H])[C@H](N)C(=O)O` [L-alanine-3,3,3-d3] as the compound, how does the “loss of deuterium in vivo” value [8] read?
Answer: lose deuterium in vivo very quickly

Question: What about the “accumulation in tumor tissue (2H tomograms)” value (4T1 breast carcinoma) of the same compound?
Answer: do not accumulate in tumor tissue

Question: And the “accumulation selectivity in various organs (2H tomograms)” value (4T1 breast carcinoma)?
Answer: do not show accumulation selectivity in various organs

Question: Which results are given for `[2H]c1c([2H])c([2H])c(C([2H])([2H])[C@H](N)C(=O)O)c([2H])c1[2H]` [L-phenylalanine-β,β,2,3,4,5,6-d7]?
Answer: solubility [9]: low solubility; accumulation in tumor tissue (2H tomograms) (4T1 breast carcinoma): do not accumulate in tumor tissue; accumulation selectivity in various organs (2H tomograms) (4T1 breast carcinoma): do not show accumulation selectivity in various organs

Question: With `[2H]C([2H])(N)C(=O)O` [glycine-2,2-d2] as the compound, how does the “loss of deuterium in vivo” value [8] read?
Answer: lose deuterium in vivo very quickly

Question: Which “organ of main accumulation” value [4] does the source give for `CC(C)[C@H](N)[11C](=O)O` [1-^11C-valine] here?
Answer: accumulate mainly in the pancreas
